Assay results reported in patent US10370372B2, “Fused pyrimidine compound or salt thereof” (TAIHO PHARMACEUTICAL CO., LTD., priority 2015, dated 2019).
Like-named read-outs stand apart in the source and are kept apart here.

How the values were obtained:
Type in all cases: cell-based
[1] = biological target: T1, human androgen receptor (Homo sapiens, UniProt P10275); experiment: Antagonist activity for AR: MMTV-luc reporter transcription in COS-7 cells transfected with human AR, stimulated with DHT
T1 construct: expressed in transfected cells; host or cells: COS-7 cells (ATCC)
T1 sequence (P10275 1-920): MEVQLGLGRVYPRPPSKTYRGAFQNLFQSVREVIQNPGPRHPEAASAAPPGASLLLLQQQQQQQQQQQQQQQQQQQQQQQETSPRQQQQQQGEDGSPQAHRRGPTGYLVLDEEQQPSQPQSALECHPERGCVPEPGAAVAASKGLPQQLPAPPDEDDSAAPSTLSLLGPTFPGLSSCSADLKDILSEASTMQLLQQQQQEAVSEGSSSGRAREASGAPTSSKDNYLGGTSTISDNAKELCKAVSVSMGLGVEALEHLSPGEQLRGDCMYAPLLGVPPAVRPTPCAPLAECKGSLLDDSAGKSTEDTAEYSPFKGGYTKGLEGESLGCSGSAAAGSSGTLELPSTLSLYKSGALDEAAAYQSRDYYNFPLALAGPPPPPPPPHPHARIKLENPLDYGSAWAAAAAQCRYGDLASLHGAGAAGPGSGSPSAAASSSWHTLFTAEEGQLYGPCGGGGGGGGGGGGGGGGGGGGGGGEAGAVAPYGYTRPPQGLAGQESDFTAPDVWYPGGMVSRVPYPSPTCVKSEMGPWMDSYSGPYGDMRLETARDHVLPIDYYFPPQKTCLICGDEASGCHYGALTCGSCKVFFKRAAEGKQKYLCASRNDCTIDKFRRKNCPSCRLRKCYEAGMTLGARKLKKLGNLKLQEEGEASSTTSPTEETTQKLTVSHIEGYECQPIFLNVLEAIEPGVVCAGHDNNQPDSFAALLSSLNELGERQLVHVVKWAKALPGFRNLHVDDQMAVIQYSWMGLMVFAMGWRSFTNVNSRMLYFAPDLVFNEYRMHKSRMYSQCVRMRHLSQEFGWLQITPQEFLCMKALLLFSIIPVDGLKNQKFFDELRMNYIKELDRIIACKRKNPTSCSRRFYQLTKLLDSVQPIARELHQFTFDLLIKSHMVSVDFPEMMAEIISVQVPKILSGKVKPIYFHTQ
Procedure: Antagonist activity for AR was evaluated according to the following method. COS-7 cells (ATCC) were transfected with pMMTV-luc vector (reporter plasmid having, as an androgen response element, […] long terminal repeat) and pEX-hAR vector (human androgen receptor expression vector: which expresses human AR gene under control of CMV promoter) by using Nucleofector (registered trademark) Kit R (Lonza) as a transfection reagent and Amaxa (Lonza). The COS-7 cells obtained after transfection were seeded in a clear bottom 96 well microplate (BD) at 1.5×10^4/well with phenol red free RPMI1640 containing 10% charcoal-treated fetal bovine serum (hereinbelow, DCC-FBS) (hereinbelow, the medium is referred to as an evaluation medium), and then cultured overnight. […] Then, the transcription activity value of the reporter plasmid was measured. The transcription activity was measured by using Bright-Glo™ Luciferase Assay System (Promega).

[2] = tested on: AR expression in LNCaP; experiment: Activity of reducing expression level of androgen receptor (Western blotting in LNCaP); conditions: Homo sapiens, read-out: AR expression reducing activity
Procedure: AR positive human prostate cancer cells LNCaP were seeded in a 6 well microplate (BD) at 3.5×10^5/well with RPMI1640 containing 5% FBS (hereinbelow, the medium is referred to as an evaluation medium), and then cultured overnight. […] After culture for 48 hours, the medium was removed and the cells were washed with PBS and added with 0.1 mL of Lysis buffer (M-PER added with Protease Inhibitor Cocktail), followed by keeping at 4° C. for 20 minutes. After cell lysis, the cell solution was centrifuged to recover the supernatant as cell lysate. […] The antibody-reacting band (anti AR receptor) was quantified by LAS Imaging System (FUJIFILM) using Super Signal West Dura Substrate (Thermo Scientific) as a detection reagent.
When the AR expression reducing activity is 50% or more, it is described as “reduced”.

[3] = tested on: AR positive human prostate cancer cells VCaP; experiment: Agonist activity for AR: cell proliferation rate of VCaP cells; conditions: 5-10000 nmol/L, 72 hours, relative to evaluation medium only, more than 10% = agonist activity
Procedure: Then, the number of viable cells was measured (test group). As a control, the cells were cultured after being added with the evaluation medium only, and the number of viable cells was measured (control group). The number of viable cells was measured by using CellTiter-Glo™ Luminescent Cell Viability Assay (Promega). From the measured number of viable cells, cell proliferation rate with respect to the compound of Examples or the compound of Comparative Examples was calculated based on the number of viable cells measured in the case of using the evaluation medium only. Cell proliferation rate (%)=(Number of viable cells in test group−Number of viable cells in control group)/(Number of viable cells in control group)×100
By considering an error in the number of viable cells measured in the case of using the evaluation medium only, when the cell proliferation rate was more than 10% at any concentration of the 8 concentrations which had been evaluated, it was determined to have an agonist activity for AR.

[4] = tested on: Human prostate cancer cells LNCaP; experiment: Inhibitory activity on androgen-dependent proliferation of prostate cancer cells; conditions: 1 nmol/L DHT, 72 hours, Cell Counting Kit-8, read-out: Proliferation inhibition concentration GI50 value
Procedure: Human prostate cancer cells LNCaP (Non-Patent Literature 5) having […] androgen receptor gene were seeded in a clear bottom 96 well microplate (BD) at 4.0×10^3/well with phenol red free RPMI1640 containing 5% DCC-FBS (hereinbelow, the medium is referred to as an evaluation medium), and then cultured overnight. […] Then, the number of viable cells was measured. The number of viable cells was measured by using Cell Counting Kit-8 (DOJINDO LABORATORIES).

[5] = COS-7 cells with pMMTV-luc and pEX-hAR, 1 nmol/L DHT, 24 hours, read-out: AR antagonist IC50
[6] = 10000 nmol/L, 48 hours, vs evaluation medium control

IC50 [1, 5] [nM]	Compound	IC50 [1] [nM]	inhibition at 10 µM ([2]; 48 h) [%]	Cell proliferation rate (%) [3] [%]	GI50 [4] [nM]	inhibition at 10 µM [2, 6] [%]
–	C#CCNC(=O)c1ccc(Nc2ncnc3c2CCN(c2ccc(C#N)c(C(F)(F)F)c2)C3)nn1 [Example 11, 6-((7-(4-cyano-3-(trifluoromethyl)phenyl)-5,6,7,8-tetrahydropyrido[3,4-d]pyrimidin-4-yl)amino)-N-(prop-2-yn-1-yl)pyridazine-3-carboxamide]	25	> 50	4.9	950	–
32	CC(C)(O)c1ccc(Nc2ncnc3c2CCN(c2ccc([N+](=O)[O-])c(Cl)c2)C3)nc1 [Example 13, 2-(6-((7-(3-Chloro-4-nitrophenyl)-5,6,7,8-tetrahydropyrido[3,4-d]pyrimidin-4-yl)amino)pyridin-3-yl)propan-2-ol]	–	–	7.3	300	> 50
–	CC(C)(O)c1ccc(Nc2ncnc3c2CCN(c2ccc([N+](=O)[O-])c(C(F)(F)F)c2)C3)nc1 [Example 14, 2-(6-((7-(4-nitro-3-(trifluoromethyl)phenyl)-5,6,7,8-tetrahydropyrido[3,4-d]pyrimidin-4-yl)amino)pyridin-3-yl)propan-2-ol]	70	> 50	1.4	1200	–
70	Cc1cc(N2CCc3c(ncnc3Nc3ccc(C(C)(C)O)cn3)C2)ccc1[N+](=O)[O-] [Example 16, 2-(6-((7-(3-methyl-4-nitrophenyl)-5,6,7,8-tetrahydropyrido[3,4-d]pyrimidin-4-yl)amino)pyridin-3-yl)propan-2-ol]	–	–	−1.8	230	> 50
–	CC(C)(O)c1ccc(Nc2ncnc3c2CCN(c2ccc([N+](=O)[O-])c(Br)c2)C3)nc1 [Example 17, 2-(6-((7-(3-bromo-4-nitrophenyl)-5,6,7,8-tetrahydropyrido[3,4-d]pyrimidin-4-yl)amino)pyridin-3-yl)propan-2-ol]	30	> 50	9.7	1200	–
1300	CC(C)Oc1cc(N2CCc3c(ncnc3Nc3ccc(C(C)(C)O)cn3)C2)ccc1[N+](=O)[O-] [Example 19, 2-(6-((7-(3-isopropoxy-4-nitrophenyl)-5,6,7,8-tetrahydropyrido[3,4-d]pyrimidin-4-yl)amino)pyridin-3-yl)propan-2-ol]	–	–	7.8	220	> 50
19	COc1cc(N2CCc3c(ncnc3Nc3ccc(C(C)(C)O)cn3)C2)ccc1C#N [Example 23, 4-(4-((5-(2-Hydroxypropan-2-yl)pyridin-2-yl)amino)-5,6-dihydropyrido[3,4-d]pyrimidin-7(8H)-yl)-2-methoxybenzonitrile]	–	–	2.3	2600	> 50
180	O=C(NCC(F)(F)F)c1ccc(Nc2ncnc3c2CCN(c2ccc([N+](=O)[O-])c(C(F)(F)F)c2)C3)nn1 [Example 24, 6-((7-(4-Nitro-3-(trifluoromethyl)phenyl)-5,6,7,8-tetrahydropyrido[3,4-d]pyrimidin-4-yl)amino)-N-(2,2,2-trifluoroethyl)pyridazine-3-carboxamide]	–	–	7.8	790	> 50
–	COc1ccc(Nc2ncnc3c2CCN(c2ccc(C#N)c(C(F)(F)F)c2)C3)cc1OC [Example 26, 4-(4-((3,4-Dimethoxyphenyl)amino)-5,6-dihydropyrido[3,4-d]pyrimidin-7(8H)-yl)-2-(trifluoromethyl)benzonitrile]	1100	> 50	4.5	1200	–
–	N#Cc1ccc(N2CCc3c(ncnc3Nc3ccc(OC(F)(F)F)cc3)C2)cc1C(F)(F)F [Example 27, 4-(4-((4-(trifluoromethoxy)phenyl)amino)-5,6-dihydropyrido[3,4-d]pyrimidin-7(8H)-yl)-2-(trifluoromethyl)benzonitrile]	1000	> 50	3.8	1000	–
–	N#Cc1ccc(N2CCc3c(ncnc3Nc3ccc(N4CC5(COC5)C4)cc3)C2)cc1Cl [Example 28, 4-(4-((4-(2-oxa-6-azaspiro[3.3]heptan-6-yl)phenyl)amino)-5,6-dihydropyrido[3,4-d]pyrimidin-7(8H)-yl)-2-chlorobenzonitrile]	680	> 50	1.4	680	–
–	CC(C)(C)OC(=O)N1Cc2ccc(Nc3ncnc4c3CCN(c3ccc(C#N)c(Cl)c3)C4)cc2C1 [Example 29, tert-butyl 5-((7-(3-chloro-4-cyanophenyl)-5,6,7,8-tetrahydropyrido[3,4-d]pyrimidin-4-yl)amino)isoindoline-2-carboxylate]	220	> 50	2.4	830	–
–	N#Cc1ccc(N2CCc3c(ncnc3Nc3ccc4c(c3)CNCC4)C2)cc1Cl [Example 37, 2-Chloro-4-(4-((1,2,3,4-tetrahydroisoquinolin-7-yl)amino)-5,6-dihydropyrido[3,4-d]pyrimidin-7(8H)-yl)benzonitrile]	690	> 50	4.6	990	–
–	CC(=O)N1CCN(CCCOc2ccc(Nc3ncnc4c3CCN(c3ccc(C#N)c(Cl)c3)C4)cc2Cl)CC1 [Example 42, 4-(4-((4-(3-(4-Acetylpiperazin-1-yl)propoxy)-3-chlorophenyl)amino)-5,6-dihydropyrido[3,4-d]pyrimidin-7(8H)-yl)-2-chlorobenzonitrile]	560	> 50	5.1	1300	–

Compound	IC50 [1, 5] [nM]	IC50 [1] [nM]	inhibition at 10 µM ([2]; 48 h) [%]	Cell proliferation rate (%) [3] [%]	GI50 [4] [nM]	inhibition at 10 µM [2, 6] [%]
CC(C)(C)OC(=O)N1CCc2ccc(Nc3ncnc4c3CCN(c3ccc(C#N)c(Cl)c3)C4)cc2C1 [Example 36, tert-Butyl 7-((7-(3-chloro-4-cyanophenyl)-5,6,7,8-tetrahydropyrido[3,4-d]pyrimidin-4-yl)amino)-3,4-dihydroisoquinoline-2(1H)-carboxylate]	180	–	> 50	4.9	150	–
